Source: publication PMC10046369, “Low-Affinity/High-Selectivity Dopamine Transport Inhibition Sufficient to Rescue Cognitive Functions in the Aging Rat” (Biomolecules, 2023)

Columns and labels:
Experiment in all cases: biochemical
Parameters in all cases: KINOMEscan competition binding panel, per cent of control
Conditions in all cases: read-out: %Ctrl @ 2800nM
[1] = biological target: SLK (Homo sapiens, UniProt Q9H2G2)
In short: (§1)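 Competition binding panel (KINOMEscan) across 450 human kinases and disease-relevant mutants, run to the contractor's standard protocol. Values are % control: (test signal − positive control signal)/(negative control signal − positive control signal) × 100, with lower values indicating stronger binding.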

[2] = biological target: T1, IKK-epsilon (Homo sapiens, UniProt Q14164)
T1 construct: gene IKBKE
In short: as §1

[3] = biological target: T2, ERK4 (Homo sapiens, UniProt P31152)
T2 construct: gene MAPK4
In short: as §1

[4] = biological target: PDGFRA (Homo sapiens, UniProt P16234)
In short: as §1

[5] = biological target: T3, PRP4 (Homo sapiens, UniProt Q13523)
T3 construct: gene PRPF4B
In short: as §1

[6] = biological target: T4, MLK1 (Homo sapiens, UniProt P80192)
T4 construct: gene MAP3K9
In short: as §1

[7] = biological target: MERTK (Homo sapiens, UniProt Q12866)
In short: as §1

[8] = biological target: LATS2 (Homo sapiens, UniProt Q9NRM7)
In short: as §1

[9] = biological target: T5, PAK7 (Homo sapiens, UniProt Q9P286)
T5 construct: gene PAK5
In short: as §1

[10] = biological target: GRK1 (Homo sapiens, UniProt Q15835)
In short: as §1

[11] = biological target: GSK3B (Homo sapiens, UniProt P49841)
In short: as §1

[12] = biological target: T6, MLK3 (Homo sapiens, UniProt Q16584)
T6 construct: gene MAP3K11
In short: as §1

[13] = biological target: EPHA2 (Homo sapiens, UniProt P29317)
In short: as §1

[14] = biological target: CDKL1 (Homo sapiens, UniProt Q00532)
In short: as §1

[15] = biological target: T7, RSK2(Kin.Dom.2-C-terminal) (Homo sapiens, UniProt P51812)
T7 construct: gene RPS6KA3; Kin.Dom.2-C-terminal
In short: as §1

[16] = biological target: PIK3CA (Homo sapiens, UniProt P42336)
In short: as §1

[17] = biological target: SGK2 (Homo sapiens, UniProt Q9HBY8)
In short: as §1

[18] = biological target: HIPK4 (Homo sapiens, UniProt Q8NE63)
In short: as §1

[19] = biological target: FLT3-autoinhibited (Homo sapiens, UniProt P36888)
In short: as §1

[20] = biological target: STK16 (Homo sapiens, UniProt O75716)
In short: as §1

[21] = biological target: EPHA1 (Homo sapiens, UniProt P21709)
In short: as §1

[22] = biological target: T8, RPS6KA4(Kin.Dom.2-C-terminal) (Homo sapiens, UniProt O75676)
T8 construct: Kin.Dom.2-C-terminal
In short: as §1

[23] = biological target: T9, SNARK (Homo sapiens, UniProt Q9H093)
T9 construct: gene NUAK2
In short: as §1

[24] = biological target: T10, RSK1(Kin.Dom.2-C-terminal) (Homo sapiens, UniProt Q15418)
T10 construct: gene RPS6KA1; Kin.Dom.2-C-terminal
In short: as §1

[25] = biological target: T11, SIK (Homo sapiens, UniProt P57059)
T11 construct: gene SIK1
In short: as §1

[26] = biological target: HIPK2 (Homo sapiens, UniProt Q9H2X6)
In short: as §1

Sequence of STK16 (O75716 whole entry): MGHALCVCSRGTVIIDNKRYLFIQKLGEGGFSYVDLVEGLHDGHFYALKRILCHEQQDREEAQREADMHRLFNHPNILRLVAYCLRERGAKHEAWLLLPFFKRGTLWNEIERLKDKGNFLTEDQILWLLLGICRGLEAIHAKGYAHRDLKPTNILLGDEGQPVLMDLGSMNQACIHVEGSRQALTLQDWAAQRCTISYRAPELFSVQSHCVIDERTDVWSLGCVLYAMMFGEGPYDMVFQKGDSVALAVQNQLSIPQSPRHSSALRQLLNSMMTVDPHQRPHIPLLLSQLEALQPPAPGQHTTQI
Sequence of HIPK4 (Q8NE63 whole entry): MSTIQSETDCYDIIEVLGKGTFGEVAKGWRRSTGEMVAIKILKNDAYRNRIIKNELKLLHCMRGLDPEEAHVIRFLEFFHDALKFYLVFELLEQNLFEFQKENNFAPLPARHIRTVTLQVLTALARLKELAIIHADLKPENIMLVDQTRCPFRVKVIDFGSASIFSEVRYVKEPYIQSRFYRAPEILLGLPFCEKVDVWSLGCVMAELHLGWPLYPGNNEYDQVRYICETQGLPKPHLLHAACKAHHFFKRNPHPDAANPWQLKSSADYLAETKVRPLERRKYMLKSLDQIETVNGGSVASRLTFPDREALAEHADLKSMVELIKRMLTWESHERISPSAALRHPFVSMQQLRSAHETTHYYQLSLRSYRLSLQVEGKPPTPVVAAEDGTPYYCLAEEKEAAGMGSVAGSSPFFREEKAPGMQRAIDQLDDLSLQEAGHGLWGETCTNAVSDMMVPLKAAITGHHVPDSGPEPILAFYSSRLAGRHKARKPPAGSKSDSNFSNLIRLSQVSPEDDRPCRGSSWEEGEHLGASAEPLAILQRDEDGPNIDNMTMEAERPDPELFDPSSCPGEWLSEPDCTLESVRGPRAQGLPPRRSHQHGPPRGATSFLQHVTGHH
T3 sequence (Q13523 whole entry): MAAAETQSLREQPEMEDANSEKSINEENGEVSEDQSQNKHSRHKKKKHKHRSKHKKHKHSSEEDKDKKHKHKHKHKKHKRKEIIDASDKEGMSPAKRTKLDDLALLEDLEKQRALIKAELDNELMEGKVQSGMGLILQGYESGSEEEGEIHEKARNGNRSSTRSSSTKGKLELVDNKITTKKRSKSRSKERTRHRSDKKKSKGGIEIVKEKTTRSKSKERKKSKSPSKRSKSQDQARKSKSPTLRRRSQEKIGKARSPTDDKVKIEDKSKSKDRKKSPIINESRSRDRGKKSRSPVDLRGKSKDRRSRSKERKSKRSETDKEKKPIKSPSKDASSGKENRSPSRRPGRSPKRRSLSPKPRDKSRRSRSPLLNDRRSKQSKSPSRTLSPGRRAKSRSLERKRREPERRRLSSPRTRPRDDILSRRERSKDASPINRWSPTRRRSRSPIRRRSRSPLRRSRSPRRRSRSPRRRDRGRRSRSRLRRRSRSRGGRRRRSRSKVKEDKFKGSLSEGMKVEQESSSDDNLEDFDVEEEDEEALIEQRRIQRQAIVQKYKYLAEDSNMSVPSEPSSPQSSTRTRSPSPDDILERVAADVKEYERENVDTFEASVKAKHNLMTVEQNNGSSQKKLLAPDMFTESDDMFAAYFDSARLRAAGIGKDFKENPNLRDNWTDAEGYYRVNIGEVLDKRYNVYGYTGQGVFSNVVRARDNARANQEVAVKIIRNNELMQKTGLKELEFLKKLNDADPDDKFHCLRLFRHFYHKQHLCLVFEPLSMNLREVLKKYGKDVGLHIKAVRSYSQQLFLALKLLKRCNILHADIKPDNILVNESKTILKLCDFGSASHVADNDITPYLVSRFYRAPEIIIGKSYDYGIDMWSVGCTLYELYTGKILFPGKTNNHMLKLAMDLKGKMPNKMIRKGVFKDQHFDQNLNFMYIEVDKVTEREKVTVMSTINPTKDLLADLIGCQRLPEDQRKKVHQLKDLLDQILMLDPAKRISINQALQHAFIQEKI
T1 sequence (Q14164 whole entry): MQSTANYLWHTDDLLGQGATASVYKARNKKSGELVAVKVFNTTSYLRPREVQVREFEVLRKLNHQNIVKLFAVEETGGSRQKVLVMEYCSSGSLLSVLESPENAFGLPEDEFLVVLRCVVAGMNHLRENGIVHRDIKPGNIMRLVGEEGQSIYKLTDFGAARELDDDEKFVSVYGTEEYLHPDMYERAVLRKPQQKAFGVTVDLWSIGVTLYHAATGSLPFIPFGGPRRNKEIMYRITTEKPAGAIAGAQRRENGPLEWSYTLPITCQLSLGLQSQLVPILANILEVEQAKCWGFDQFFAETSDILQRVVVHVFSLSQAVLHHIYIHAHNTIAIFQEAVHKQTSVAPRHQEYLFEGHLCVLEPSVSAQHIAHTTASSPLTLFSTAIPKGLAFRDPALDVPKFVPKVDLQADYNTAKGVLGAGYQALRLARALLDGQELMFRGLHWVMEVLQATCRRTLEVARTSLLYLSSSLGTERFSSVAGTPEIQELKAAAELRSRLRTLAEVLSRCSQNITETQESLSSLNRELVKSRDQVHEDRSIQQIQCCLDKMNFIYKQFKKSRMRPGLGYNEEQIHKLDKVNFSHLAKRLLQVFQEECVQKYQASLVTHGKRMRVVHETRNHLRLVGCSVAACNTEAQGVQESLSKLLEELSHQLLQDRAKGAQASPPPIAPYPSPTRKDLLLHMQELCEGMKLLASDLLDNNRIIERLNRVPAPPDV
Sequence of GRK1 (Q15835 whole entry): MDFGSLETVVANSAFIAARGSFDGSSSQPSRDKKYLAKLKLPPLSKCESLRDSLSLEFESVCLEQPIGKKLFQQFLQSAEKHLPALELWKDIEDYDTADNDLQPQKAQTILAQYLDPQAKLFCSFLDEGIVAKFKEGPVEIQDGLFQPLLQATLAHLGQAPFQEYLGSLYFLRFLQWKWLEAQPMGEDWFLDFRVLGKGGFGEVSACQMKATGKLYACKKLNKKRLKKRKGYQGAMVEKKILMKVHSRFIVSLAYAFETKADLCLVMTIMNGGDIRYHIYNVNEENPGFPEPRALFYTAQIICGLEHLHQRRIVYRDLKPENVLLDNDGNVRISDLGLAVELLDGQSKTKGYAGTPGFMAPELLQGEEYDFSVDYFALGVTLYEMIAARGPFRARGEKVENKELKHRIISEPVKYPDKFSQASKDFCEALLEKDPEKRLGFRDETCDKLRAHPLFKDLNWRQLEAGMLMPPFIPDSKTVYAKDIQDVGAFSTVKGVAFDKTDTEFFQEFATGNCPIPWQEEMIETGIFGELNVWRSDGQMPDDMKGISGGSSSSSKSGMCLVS
T9 sequence (Q9H093 whole entry): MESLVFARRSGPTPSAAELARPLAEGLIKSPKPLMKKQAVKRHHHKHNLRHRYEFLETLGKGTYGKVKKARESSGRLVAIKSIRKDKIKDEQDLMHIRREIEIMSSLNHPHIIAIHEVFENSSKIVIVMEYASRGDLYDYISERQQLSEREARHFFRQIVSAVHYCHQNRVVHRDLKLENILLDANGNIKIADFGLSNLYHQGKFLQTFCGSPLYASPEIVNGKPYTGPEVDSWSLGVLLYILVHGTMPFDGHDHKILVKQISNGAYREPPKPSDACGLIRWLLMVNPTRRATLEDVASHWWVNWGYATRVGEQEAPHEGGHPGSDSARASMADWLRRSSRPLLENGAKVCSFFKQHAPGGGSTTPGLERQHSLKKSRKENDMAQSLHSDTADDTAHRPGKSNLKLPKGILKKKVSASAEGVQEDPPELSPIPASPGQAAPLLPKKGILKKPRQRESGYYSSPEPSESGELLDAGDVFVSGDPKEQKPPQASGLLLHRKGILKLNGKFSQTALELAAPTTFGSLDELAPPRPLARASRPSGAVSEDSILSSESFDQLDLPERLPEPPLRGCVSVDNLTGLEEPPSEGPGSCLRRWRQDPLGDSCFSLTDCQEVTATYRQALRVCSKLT
Sequence of MERTK (Q12866 whole entry): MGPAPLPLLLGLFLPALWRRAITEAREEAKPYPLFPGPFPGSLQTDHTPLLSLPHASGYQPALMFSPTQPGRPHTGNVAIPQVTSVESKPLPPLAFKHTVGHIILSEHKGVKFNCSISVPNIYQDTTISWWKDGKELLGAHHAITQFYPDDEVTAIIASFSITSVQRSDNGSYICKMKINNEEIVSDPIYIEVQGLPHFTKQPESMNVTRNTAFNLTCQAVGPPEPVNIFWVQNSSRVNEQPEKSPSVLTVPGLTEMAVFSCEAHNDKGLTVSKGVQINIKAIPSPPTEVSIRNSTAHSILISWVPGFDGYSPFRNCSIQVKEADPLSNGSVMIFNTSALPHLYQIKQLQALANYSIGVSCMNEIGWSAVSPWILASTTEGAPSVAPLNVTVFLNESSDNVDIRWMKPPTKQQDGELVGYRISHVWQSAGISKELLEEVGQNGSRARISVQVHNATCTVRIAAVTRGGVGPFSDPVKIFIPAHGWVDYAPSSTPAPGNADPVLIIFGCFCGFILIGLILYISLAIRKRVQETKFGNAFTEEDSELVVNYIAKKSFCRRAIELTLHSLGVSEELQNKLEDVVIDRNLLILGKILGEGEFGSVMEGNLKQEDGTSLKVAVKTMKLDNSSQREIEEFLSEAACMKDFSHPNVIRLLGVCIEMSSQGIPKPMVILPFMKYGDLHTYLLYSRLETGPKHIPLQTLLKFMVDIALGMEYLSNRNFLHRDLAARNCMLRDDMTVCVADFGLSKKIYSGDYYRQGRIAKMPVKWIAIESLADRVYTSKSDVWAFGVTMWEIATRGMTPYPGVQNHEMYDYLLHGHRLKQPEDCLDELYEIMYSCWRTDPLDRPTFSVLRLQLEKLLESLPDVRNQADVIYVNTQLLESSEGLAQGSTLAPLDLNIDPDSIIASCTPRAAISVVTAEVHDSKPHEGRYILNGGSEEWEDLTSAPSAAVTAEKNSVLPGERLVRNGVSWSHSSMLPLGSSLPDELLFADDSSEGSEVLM

Compound [O-][S@@+](Cc1cncs1)C(c1ccccc1)c1ccccc1 [S-CE-123, (S)-5-((Benzhydrylsulfinyl)Methyl)Thiazole] has a remaining binding at 2.8 µM [1] of 100%, a remaining binding at 2.8 µM [2] of 98% and a remaining binding at 2.8 µM [3] of 100%. For the same compound, the remaining binding at 2.8 µM [4] was 98%, the remaining binding at 2.8 µM [5] was 92% and the remaining binding at 2.8 µM [6] was 100%. The remaining binding at 2.8 µM [7] was 63%, the remaining binding at 2.8 µM [8] was 100% and the remaining binding at 2.8 µM [9] was 98%. It also gave a remaining binding at 2.8 µM [10] of 100%, a remaining binding at 2.8 µM [11] of 92% and a remaining binding at 2.8 µM [12] of 100%. For the same compound, the remaining binding at 2.8 µM [13] was 73%, the remaining binding at 2.8 µM [14] was 100% and the remaining binding at 2.8 µM [15] was 96%. For the same compound, the remaining binding at 2.8 µM [16] was 80%, the remaining binding at 2.8 µM [17] was 100% and the remaining binding at 2.8 µM [18] was 100%. It also gave a remaining binding at 2.8 µM [19] of 99%, a remaining binding at 2.8 µM [20] of 97% and a remaining binding at 2.8 µM [21] of 96%. For the same compound, the remaining binding at 2.8 µM [22] was 99%, the remaining binding at 2.8 µM [23] was 100% and the remaining binding at 2.8 µM [24] was 92%. For the same compound, the remaining binding at 2.8 µM [25] was 100% and the remaining binding at 2.8 µM [26] was 100%.
